Measured values reported in patent EP1195162A1 (priority 1999, dated 2000).
Read-outs that look alike come from different tables or passages of the source.

How the values were obtained:
[1] = test system: rotavirus vaccine; assay: Rotavirus vaccine with oral adjuvant; antibody production in the blood; assay type: in vivo, mice; conditions: adjuvant oral at first inoculation only
Procedure: A rotavirus vaccine preparation was prepared to contain virus particles of which amount corresponded to 3.3 µg in 20 µL. The methyl ester derivative (2) (methyl 9,12,13-trihydroxy-10E-octadecenoate) as used in Example 5 was dissolved in PBS and prepared at a concentration of 10 µg in 0.5 mL. The resulting preparation was sterilized by filter and dispensed into containers, which were used as rotavirus vaccine-hydroxy unsaturated fatty acid oral preparations or nasal drops. Such preparations were stored at a temperature of not more than 10°C in a cool and dark place.
The rotavirus vaccine as prepared above was administered into mice twice at 3-week intervals, and then the methyl ester derivative was orally administered only at or around the time of the first inoculation. Then, the antibody production in the blood was evaluated.

[2] = test system: anti-influenza virus IgA antibody; assay type: in vivo, BALB/c mice; conditions: 50 µg/kg oral for 5 days, serum after 2 weeks, versus vaccine with aqueous solvent (only a low level), Figure 3
[3] = test system: diphtheria toxoid (DT); parameters: species or system mice; conditions: mouse, in vivo
[4] = test system: anti-influenza virus IgG antibody; assay type: in vivo, BALB/c mice; conditions: secondary response
[5] = test system: anti-influenza virus IgA antibody; assay: […]; nasal irrigation liquid IgA by ELISA; assay type: in vivo, BALB/c mice; conditions: secondary response, 50 µg/kg oral over 1-5 days, versus no adjuvant (only a low level), Figure 4
[6] = test system: rubella; assay: Measles-rubella vaccine with oral adjuvant; antibody production in the blood, rubella; assay type: in vivo, mice; conditions: vaccine twice at 3-week intervals, adjuvant oral at first inoculation only, vaccine alone: 0.09
Procedure: (§1) A measles-rubella vaccine preparation was prepared to contain virus particles of each vaccine of which amount corresponded to 7 µg in 20 µL of the preparation. 9,12,13-Trihydroxy-10E-octadecenoic acid dissolved in PBS and sterilized by filter was prepared at a concentration of 2.5 µg in 0.5 mL. A stabilizer (0.2% porcine gelatin, 0.1% sodium glutamate, 5% lactose) was added to these preparations. The resulting mixtures were dispensed into containers, which were used as measles-rubella vaccine combined vaccine-hydroxy unsaturated fatty acid nasal drop or oral preparations. Such preparations were stored at a temperature of not more than 10°C in a cool and dark place.
(§2) The measles-rubella vaccine as prepared above was administered into mice twice at 3-week intervals, and then 9,12,13-trihydroxy-10E-octadecenoic acid was orally administered only at or around the time of the first inoculation. Then, the antibody production in the blood was evaluated.

[7] = test system: antibodies (IgG and IgA) specific to the adjuvant and IgE; assay: Detection of antibodies specific to the adjuvant and IgE in nasal irrigation liquid (ELISA); assay type: in vivo; conditions: plate coated with fatty acid-BSA complex, absorbance versus control mice without administration
Procedure: Subsequently, detection was carried out for the presence of antibodies (IgG and IgA) specific to the adjuvant and IgE. A linked complex between the hydroxy unsaturated-fatty acid and bovine serum albumin as a carrier protein was prepared. Each well of the 96-well EIA plate was first coated with a 100 µl aliquot of solution containing the complex (1 µg/ml). Subsequently, each well of the plate was coated with 300 µl aliquot of a blocking solution (PBS containing 5% skimmed milk) for 1 hour to avoid non-specific reactions. Then, 100 µl samples (nasal irrigation liquid) diluted to various concentrations were added into the respective wells for antigen-antibody reaction and the reaction was continued for 1 hour. The plate was then washed 3 times with PBS-0.05% Tween-20, and then 100 µl of peroxidase-conjugated anti-mouse IgG, IgA or IgE antibody (1:1000) as a secondary antibody was added thereto and the reaction was continued for one hour. After the plate was washed 3 times with PBS-Tween-20, 100 µl of a substrate solution (0.1 M citrate buffer (pH 4) containing 0.003% hydrogen peroxide and ABTS of 0.3 mg/ml) was added thereto. The plate was incubated for 15 minutes for color development. The color (O.D. at 405 nm) was assayed in a micro-plate reader.

[8] = test system: Mycoplasma; assay type: in vivo, mice; conditions: vaccine intranasal 3 times at 2-week intervals, adjuvant oral at first inoculation only
[9] = test system: tetanus toxoid (TT); parameters: species or system mice; conditions: mouse, in vivo
[10] = test system: anti-influenza virus IgA antibody; assay type: in vivo, BALB/c mice
[11] = test system: measles; assay: Measles-rubella vaccine with oral adjuvant; antibody production in the blood, measles; assay type: in vivo, mice; conditions: vaccine twice at 3-week intervals, adjuvant oral at first inoculation only, vaccine alone: 0.14
Procedure: as §1, §2

[12] = test system: pertussis toxin (PT); parameters: species or system mice; conditions: mouse, in vivo

CCCCCC(O)C(O)/C=C/C(O)CCCCCCCC(=O)OC (stereo not drawn) [methyl ester derivative, methyl 9,12,13-trihydroxy-10E-octadecenoate]
ELISA titer of antibody produced ([1]; inoculation of nasal vaccine drop twice at 3-week intervals, vaccine alone: 0.089): 0.38 | ELISA titer of antibody produced ([1]; vaccine inoculated orally twice at 3-week intervals, control without adjuvant: 0.018): 0.27

CCCCCC(O)C(O)/C=C/C(O)CCCCCCCC(=O)O (stereo not drawn) [9,12,13-trihydroxy-10E-octadecenoic acid]
titer of anti-influenza virus IgA antibody in the serum [2]: highly elevated | level of anti-DT-IgA antibody [3]: 11 ELISA units | level of anti-DT-IgG antibody [3]: 70 ELISA units | titer of anti-influenza virus IgG antibody in the serum ([4]; compared with HA vaccine singly used, Figure 5): increased | titer of anti-influenza virus IgG antibody in the lung irrigation liquid ([4]; vaccine alone: only a low level, Figure 6): significantly elevated | titer of anti-influenza virus IgA antibody in the nasal irrigation liquids [5]: highly elevated | ELISA titer of antibody produced for rubella [6]: 0.29 | antibodies (IgG, IgA) specific to the adjuvant and IgE [7]: neither antibody (IgG, IgA) specific to the adjuvant nor IgE was detectable | average number of lesions ([8]; vaccine alone: 302): 178 | mice in which lesions associated with Mycoplasma infection were found ([8]; vaccine alone: all of 10): 3 of 10 | level of anti-TT-IgA antibody [9]: 11 ELISA units | level of anti-TT-IgG antibody [9]: 75 ELISA units | adjuvant activity compared with the same dose of CTB (positive control), nasal irrigation liquid IgA ([10]; mouse, in vivo): comparable | adjuvant activity compared with the same dose of CTB (positive control), serum IgA ([10]; mouse, in vivo): comparable | titer of anti-influenza virus IgA antibody in the serum ([10]; secondary response, adjuvant 1 µg per mouse oral, vaccine subcutaneous, compared with HA vaccine singly used, Figure 7): significantly increased | titer of anti-influenza virus IgA antibody in the nasal irrigation liquid ([10]; secondary response, adjuvant 1 µg per mouse oral, vaccine subcutaneous, vaccine alone: only a low level, Figure 8): significantly elevated | ELISA titer of antibody produced for measles [11]: 0.30 | level of anti-PT-IgA antibody [12]: 14 ELISA units | level of anti-PT-IgG antibody [12]: 442 ELISA units
